Data as given in patent publication US8324390B2, “Tetrazole-substituted anthranilamides as pesticides” (Bayer CropScience AG, priority 2008, dated 2012).
Where two headings read alike, the source gives them in different places. Each block holds one compound with its values, some of them ahead of it.

Assays:
[1] = system: caterpillars of the armyworm (Spodoptera frugiperda); assay: Spodoptera frugiperda test (SPODFR spray treatment); assay type: in vivo; settings: Spodoptera frugiperda, foliar, read-out: effect in % (caterpillars killed)
Source text: Solvent: 78.0 parts by weight of acetone

[2] = log P determination by HPLC (EEC Directive 79/831 Annex V.A8); assay type: physicochemical
Experimental: The measurements were carried out using an Agilent 1100 LC system with a 50*4.6 Zorbax Eclipse C18 1.8 μm column (oven temperature 55° C., flow rate 2.0 ml/min).
The following mobile phases were used:
Mobile phase A: acetonitrile+1000 μl of formic acid/l
Mobile phase B: Millipore water+900 μl of formic acid/l

[3] = system: larvae of the mustard beetle (Phaedon cochleariae); assay: Phaedon test (PHAECO spray treatment); settings: Phaedon cochleariae, in Brassica rapa, foliar, read-out: effect in % (beetle larvae killed)
[4] = application rate 100 g/ha, maize leaf discs
[5] = reversed-phase HPLC, Zorbax Eclipse C18 column, by HPLC according to EEC Directive 79/831 Annex V.A8, read-out: log P
[6] = reversed-phase HPLC, Zorbax Eclipse C18 column, determined by HPLC according to EEC Directive 79/831 Annex V.A8, read-out: log P

SMILES: CCNC(=O)c1cc(C#N)cc(C)c1NC(=O)c1cc(Cn2nnc(C(F)(C(F)(F)F)C(F)(F)F)n2)nn1-c1ncccc1Cl [Example 369]
pest or weed control at 100 g/ha ([1]; in Zea mays): ≥ 80% | chromatographic logP ([2]; log P): 3.57 | pest or weed control at 100 g/ha [3]: ≥ 80%

chromatographic logP [2, 5]: 3.66
SMILES: Cc1cc(Br)cc(C(=O)NC(C)C)c1NC(=O)c1cc(Cn2nnc(C(F)(F)F)n2)nn1-c1ncccc1Br [Example 355]
pest or weed control at 100 g/ha [1, 4]: ≥ 80% | pest or weed control at 100 g/ha [3]: ≥ 80%

SMILES: CNC(=O)c1cc(C#N)cc(C)c1NC(=O)c1cc(Cn2nnc(C(F)F)n2)nn1-c1ncccc1Cl [Example 262]
pest or weed control at 100 g/ha ([1]; in Zea mays): ≥ 80% | chromatographic logP ([2]; log P): 2.17 | pest or weed control at 100 g/ha [3]: ≥ 80%

SMILES: Cc1cc(Cl)cc(C(=O)NC2CC2)c1NC(=O)c1cc(Cn2nnc(C(F)(F)C(F)(F)F)n2)nn1-c1ncccc1Cl [Example 127]
pest or weed control at 100 g/ha ([1]; in Zea mays): ≥ 80% | chromatographic logP ([2]; log P): 3.7 | pest or weed control at 100 g/ha [3]: ≥ 80%

SMILES: Cc1cc(C#N)cc(C(=O)NCCCN)c1NC(=O)c1cc(Cn2nnc(C(F)(F)F)n2)nn1-c1ncccc1Cl [Example 124]
pest or weed control at 100 g/ha ([1]; in Zea mays): ≥ 80% | chromatographic logP ([2]; log P): 1.63 | pest or weed control at 100 g/ha [3]: ≥ 80%

chromatographic logP [2, 6]: 2.74
SMILES: Cc1cc(C#N)cc(C(=O)NC(C)C)c1NC(=O)c1cc(Cn2nnnc2C(F)(F)F)nn1-c1ncccc1Br [Example 482]
pest or weed control at 100 g/ha [1, 4]: ≥ 80% | pest or weed control at 100 g/ha [3]: ≥ 80%

SMILES: O=C(NC1CC1)c1cc(Cl)cc(Cl)c1NC(=O)c1cc(Cn2nnc(C(F)(F)F)n2)nn1-c1ncccc1Cl [Example 57]
pest or weed control at 100 g/ha ([1]; in Zea mays): ≥ 80% | chromatographic logP ([2]; log P): 3.18 | pest or weed control at 100 g/ha [3]: ≥ 80%

chromatographic logP [2, 5]: 3.45
SMILES: Cc1cc(I)cc(C(=O)NC2CC2)c1NC(=O)c1cc(Cn2nnc(C(F)(F)F)n2)nn1-c1ncccc1Br [Example 350]
pest or weed control at 100 g/ha [1, 4]: ≥ 80% | pest or weed control at 100 g/ha [3]: ≥ 80%

chromatographic logP [2, 5]: 4.3
SMILES: CSC[C@H](C)NC(=O)c1cc(Cl)cc(Cl)c1NC(=O)c1cc(Cn2nnc(C(F)(C(F)(F)F)C(F)(F)F)n2)nn1-c1ncccc1Cl [Example 394]
pest or weed control at 100 g/ha [1, 4]: ≥ 80% | pest or weed control at 100 g/ha [3]: ≥ 80%

chromatographic logP [2, 6]: 3.84
SMILES: Cc1cc(C#N)cc(C(=O)NC2CCCC2)c1NC(=O)c1cc(Cn2nnc(C(F)(F)F)n2)nn1-c1ccccc1Cl [Example 401]
pest or weed control at 100 g/ha [1, 4]: ≥ 80% | pest or weed control at 100 g/ha [3]: ≥ 80%

SMILES: Cc1cc(C#N)cc(C(N)=O)c1NC(=O)c1cc(Cn2nnnc2C(F)(F)F)nn1-c1ncccc1Cl [Example 192]
pest or weed control at 100 g/ha ([1]; in Zea mays): ≥ 80% | chromatographic logP ([2]; log P): 2.12 | pest or weed control at 100 g/ha [3]: ≥ 80%

SMILES: CNC(=O)c1cc(F)cc(C)c1NC(=O)c1cc(Cn2nnc(C(F)(F)C(F)(F)F)n2)nn1-c1ncccc1Cl [Example 147]
pest or weed control at 100 g/ha ([1]; in Zea mays): ≥ 80% | chromatographic logP ([2]; log P): 3.09 | pest or weed control at 100 g/ha [3]: ≥ 80%

chromatographic logP [2, 5]: 3.32
SMILES: CNC(=O)c1cc(Cl)cc(C)c1NC(=O)c1cc(Cn2nnc(C(F)(F)F)n2)nn1-c1ccccc1F [Example 311]
pest or weed control at 100 g/ha [1, 4]: ≥ 80% | pest or weed control at 100 g/ha [3]: ≥ 80%

SMILES: CCNC(=O)c1cc(C#N)cc(C)c1NC(=O)c1cc(Cn2nnc(C(F)(F)C(F)(F)F)n2)nn1-c1ncccc1Cl [Example 215]
pest or weed control at 100 g/ha ([1]; in Zea mays): ≥ 80% | chromatographic logP ([2]; log P): 3.24 | pest or weed control at 100 g/ha [3]: ≥ 80%

SMILES: CC(C)NC(=O)c1cc(Cl)cc(Cl)c1NC(=O)c1cc(Cn2nnnc2C(F)(F)C(F)(F)F)nn1-c1ncccc1Cl [Example 205]
pest or weed control at 100 g/ha ([1]; in Zea mays): ≥ 80% | chromatographic logP ([2]; log P): 3.52 | pest or weed control at 100 g/ha [3]: ≥ 80%

SMILES: C#CCNC(=O)c1cc(C#N)cc(C)c1NC(=O)c1cc(Cn2nnnc2C(F)(F)F)nn1-c1ncccc1Cl [Example 187]
pest or weed control at 100 g/ha ([1]; in Zea mays): ≥ 80% | chromatographic logP ([2]; log P): 2.48 | pest or weed control at 100 g/ha [3]: ≥ 80%

chromatographic logP [2, 5]: 4.74
SMILES: Cc1cc(I)cc(C(=O)NC(C)C2CC2)c1NC(=O)c1cc(Cn2nnc(C(F)(C(F)(F)F)C(F)(F)F)n2)nn1-c1ncccc1Cl (stereo not drawn) [Example 378]
pest or weed control at 100 g/ha [1, 4]: ≥ 80% | pest or weed control at 100 g/ha [3]: ≥ 80%

SMILES: O=C(NC1CC1)c1cc(Cl)cc(Cl)c1NC(=O)c1cc(Cn2nnnc2C(F)F)nn1-c1ncccc1Cl [Example 469]
pest or weed control at 100 g/ha ([1]; in Zea mays): ≥ 80% | chromatographic logP ([2]; log P): 2.44 | pest or weed control at 100 g/ha [3]: ≥ 80%

SMILES: Cc1cc(I)cc(C(=O)NC2CC2)c1NC(=O)c1cc(Cn2nnc(C(F)(F)C(F)(F)C(F)(F)F)n2)nn1-c1ncccc1Cl [Example 111]
pest or weed control at 100 g/ha ([1]; in Zea mays): ≥ 80% | chromatographic logP ([2]; by HPLC according to EEC Directive 79/831 Annex V.A8, read-out: log P): 4.23 | pest or weed control at 100 g/ha [3]: ≥ 80%

chromatographic logP [2, 5]: 2.72
SMILES: Cc1cc(Cl)cc(C(=O)NCC#N)c1NC(=O)c1cc(Cn2nnc(C(F)(F)F)n2)nn1-c1ncccc1Br [Example 325]
pest or weed control at 100 g/ha [1, 4]: ≥ 80% | pest or weed control at 100 g/ha [3]: ≥ 80%

SMILES: CNC(=O)c1cc(Cl)cc(C)c1NC(=O)c1cc(Cn2nnc(C(F)(C(F)(F)F)C(F)(F)F)n2)nn1-c1ncccc1Cl [Example 357]
pest or weed control at 100 g/ha ([1]; in Zea mays): ≥ 80% | chromatographic logP ([2]; log P): 3.72 | pest or weed control at 100 g/ha [3]: ≥ 80%

chromatographic logP [2, 6]: 3.77
SMILES: Cc1cc(I)cc(C(=O)NC(C)C)c1NC(=O)c1cc(Cn2nnc(C(F)(F)F)n2)nn1-c1ncccc1Br [Example 413]
pest or weed control at 100 g/ha [1, 4]: ≥ 80% | pest or weed control at 100 g/ha [3]: ≥ 80%

SMILES: Cc1cc(C#N)cc(C(=O)NCC#N)c1NC(=O)c1cc(Cn2nnnc2C(F)(F)F)nn1-c1ncccc1Cl [Example 208]
pest or weed control at 100 g/ha ([1]; in Zea mays): ≥ 80% | chromatographic logP ([2]; log P): 2.31 | pest or weed control at 100 g/ha [3]: ≥ 80%

SMILES: Cc1cc(I)cc(C(=O)NCC#N)c1NC(=O)c1cc(Cn2nnc(C(F)(C(F)(F)F)C(F)(F)F)n2)nn1-c1ncccc1Cl [Example 384]
pest or weed control at 100 g/ha ([1]; in Zea mays): ≥ 80% | chromatographic logP ([2]; log P): 3.82 | pest or weed control at 100 g/ha [3]: ≥ 80%

SMILES: Cc1cc(I)cc(C(=O)NC(C)C2CC2)c1NC(=O)c1cc(Cn2nnc(C(F)(F)C(F)(F)F)n2)nn1-c1ncccc1Cl (stereo not drawn) [Example 141]
pest or weed control at 100 g/ha ([1]; in Zea mays): ≥ 80% | chromatographic logP ([2]; log P): 4.42 | pest or weed control at 100 g/ha [3]: ≥ 80%

SMILES: CSC[C@H](C)NC(=O)c1cc(Cl)cc(C)c1NC(=O)c1cc(Cn2nnc(C(F)(F)C(F)(F)F)n2)nn1-c1ncccc1Cl [Example 212]
pest or weed control at 100 g/ha ([1]; in Zea mays): ≥ 80% | chromatographic logP ([2]; log P): 4.09 | pest or weed control at 100 g/ha [3]: ≥ 80%

SMILES: CNC(=O)c1cc(Cl)cc(Cl)c1NC(=O)c1cc(Cn2nnnc2C(F)(F)F)nn1-c1ncccc1Cl [Example 184]
pest or weed control at 100 g/ha ([1]; in Zea mays): ≥ 80% | chromatographic logP ([2]; log P): 2.63 | pest or weed control at 100 g/ha [3]: ≥ 80%

SMILES: Cc1cc(Cl)cc(C(=O)NC2CC2)c1NC(=O)c1cc(Cn2nnc(C(F)(C(F)(F)F)C(F)(F)F)n2)nn1-c1ncccc1Cl [Example 365]
pest or weed control at 100 g/ha ([1]; in Zea mays): ≥ 80% | chromatographic logP ([2]; log P): 3.94 | pest or weed control at 100 g/ha [3]: ≥ 80%

SMILES: Cc1cc(C#N)cc(C(=O)NCC(C)(C)CF)c1NC(=O)c1cc(Cn2nnc(C(F)(F)F)n2)nn1-c1ncccc1Cl [Example 116]
pest or weed control at 100 g/ha ([1]; in Zea mays): ≥ 80% | chromatographic logP ([2]; log P): 3.35 | pest or weed control at 100 g/ha [3]: ≥ 80%

chromatographic logP [2, 5]: 3.43
SMILES: CCNC(=O)c1cc(Cl)cc(C)c1NC(=O)c1cc(Cn2nnc(C(F)(F)F)n2)nn1-c1ncccc1C(F)(F)F [Example 237]
pest or weed control at 100 g/ha [1, 4]: ≥ 80% | pest or weed control at 100 g/ha [3]: ≥ 80%

SMILES: CC(NC(=O)c1cc(Cl)cc(Cl)c1NC(=O)c1cc(Cn2nnc(C(F)(F)C(F)(F)F)n2)nn1-c1ncccc1Cl)C1CC1 (stereo not drawn) [Example 150]
pest or weed control at 100 g/ha ([1]; in Zea mays): ≥ 80% | chromatographic logP ([2]; log P): 4.12 | pest or weed control at 100 g/ha [3]: ≥ 80%
